Columns and labels:
[1] = Oral gavage pharmacokinetics, jugular and portal vein sampling, first pass metabolism; assay type: in vivo, rat; conditions: for AUC: po, 75 mg/kg; for AUC / concentration at 0 h / concentration at 0.08 h / concentration at 0.25 h / concentration at 0.33 h / concentration at 0.5 h / concentration at 0.67 h / concentration at 1 h / concentration at 1.25 h / concentration at 1.5 h / concentration at 2 h / concentration at 3 h / concentration at 4 h / concentration at 6 h / concentration at 12 h / concentration at 24 h / Cmax: rats N=4; for Cmax: read-out: Cmax average ± standard deviation
Method: (§1) Two separate IV studies were carried out using two separate lots of animals. IV-A was run on the same lot of animals as the oral gavage study and IV-B was run on the same lot of animals as the intraduodenal and intra-colonic studies.
For the oral gavage dosing, Compound 1 was prepared in neat PEG-400. For the intraduodenal and intracolonic dosing solutions, Compound 1 was added to neat Tween 80, the mixture was sonicated for thirty minutes at 45° C. until Compound 1 was completely dissolved and then deionized (DI) water was added to form a solution consisting of 20% Tween 80 and 80% DI water by weight.
(§2) For the IV and oral gavage dosing (sampling at jugular and portal vein), young adult male Sprague Dawley rats weighing 250-400 g were purchased from Hilltop Lab Animals Inc. All rat experiments were conducted under approved animal protocols. The rats for the oral gavage dosing were catheterized at Hilltop Lab Animals Inc, had two chronic catheters for sampling: jugular and portal, were housed in cages of Culex™ Automated Blood Sampler (ABS) and blood samples were collected simultaneously via both cannula and were controlled by the Culex™ ABS control software.
(§3) A quantitative method for determining the amount of (6,7-dimethoxy-2,4-dihydro-indeno[1,2-c]pyrazol-3-yl)-(3-fluoro-phenyl)-amine Compound 1 and its major metabolites, glucuronide A (Cpd 1-GluA) and glucuronide B (Cpd 1-GluB) (see Scheme A) in rat plasma was developed using phenacetin as an internal standard. [drawing 1]
(§4) The two glucuronide conjugates were prepared and purified to permit accurate quantification of the levels of intact parent Compound 1 versus Cpd 1-GluA and Cpd 1-GluB. Each standard curve for Compound 1, Cpd 1-GluA, and Cpd 1-GluB generated from rat plasma included ten concentration levels. […] The quantitative procedure for each sample included: sample preparation, HPLC separation and mass spectrometry detection.
(§5) The rat plasma was prepared using protein precipitation techniques. Reference standards and quality control samples in rat plasma for Compound 1 were transferred to a 96 deep-well plate. The precipitation solution contained 100 ng/ml of internal standard in acetonitrile. 300 μl of precipitation solution were added to 100 μl of each standard, quality control and plasma sample. Samples were vortexed for 10 mins, then centrifuged at 4500 RPM for 10 mins. 10 μl of each sample were injected for LC/MS/MS analysis.
(§6) The HPLC column chosen for the bioanalysis was purchased from Thermo Electron (Hypersil BetaBasic C18, 5 cm×2.1 mm). The eluting solvents were composed of Solvent A: 0.1% formic acid in H2O and Solvent B: 0.1% formic acid in acetonitrile. A step gradient was used and flow rate was 300 μl/min. The total run time was 3.2 mins. Solvent B was increased from 35% at 0 min to 75% at 2.1 mins and decreased back to 35% at 2.2 mins. The retention times for Compound 1, phenacetin, Cpd 1-GluA and Cpd 1-GluB were 1.1 min, 0.9 min, 1.3 min, and 1.6 min, respectively.
API3000 with a Turbo Ionspray interface from Applied Biosystems was used for the detection of Compound 1, the internal standard and major metabolites. Electrospray ionization was performed in the positive ion mode heated nebulizer with a temperature of 300° C. LC/MS/MS chromatograms were acquired in MRM (multiple reaction mode). The MRM transitions for Compound 1, the internal standard, Cpd 1-GluA and Cpd 1-GluB were from 326.3 to 190.6, 181.1 to 110.3, 502.2 to 368.3 and 502.2 to 326.4, respectively. […]

[2] = IV pharmacokinetics of Compound 1 and its glucuronides in rats; assay type: in vivo, rat
Method: as §1
For the IV dosing solutions (IV), Compound 1 was prepared by addition to DI water containing 20% hydroxypropyl β-cyclodextran by weight.
as §2, §3, §4, §5, §6
API3000 with a Turbo Ionspray interface from Applied Biosystems was used for the detection of Compound 1, the internal standard and major metabolites. Electrospray ionization was performed in the positive ion mode heated nebulizer with a temperature of 300° C. LC/MS/MS chromatograms were acquired in MRM (multiple reaction mode). The MRM transitions for Compound 1, the internal standard, Cpd 1-GluA and Cpd 1-GluB were from 326.3 to 190.6, 181.1 to 110.3, 502.2 to 368.3 and 502.2 to 326.4, respectively.
Pharmacokinetic analysis of the plasma concentration data was performed to determine the maximum plasma concentration (Cmax) for the oral dose, and the concentration at zero time (C0; Compound 1 only) by the extrapolation of drug concentrations back to the time of i.v. dosing, the time to maximum plasma concentration (Tmax) following the oral dose, area under the plasma concentration vs. time curve (AUC), terminal half-life (t1/2), plasma clearance (CL/F; Compound 1 only), and volume of distribution at steady state (Vdss; Compound 1 only) for the i.v. dose, using the WinNonlin (Version 3.1, Pharsight, Palo Alto, Calif.) validated computer program.

[3] = male, Sprague Dawley, rat, plasma (jugular vein sample), Compound 1 75 mg/kg oral gavage, jugular sample
[4] = male, Sprague Dawley, rat, plasma (portal vein sample), Compound 1 75 mg/kg oral gavage, portal sample
[5] = male, Sprague Dawley, rat, portal vein plasma, Compound 1 75 mg/kg oral gavage, portal sample

Local absorption ratio (Fa) ([1]; Compound 1 75 mg/kg oral, Equation (2)): 48±18% | Hepatic recovery ratio (Fh) ([1]; Equation (3)): 40% | Extent of first pass metabolism ([1]; gut): 52% | Extent of first pass metabolism ([1]; liver): 60% | AUC ([1]; male, Sprague Dawley, rat, plasma (jugular vein sample), Compound 1 75 mg/kg oral gavage, jugular sample, read-out: AUC average ± standard deviation 0 to 24 hours): 2340 ng·h/mL | AUC ([1]; male, Sprague Dawley, rat, plasma (jugular vein sample), Compound 1 75 mg/kg oral gavage, jugular sample, read-out: AUC average ± standard deviation 0 to infinite hours): 2410 ng·h/mL | concentration at 0 h [1, 3]: 6.7 ng/mL | concentration at 0.08 h [1, 3]: 447 ng/mL | concentration at 0.25 h [1, 3]: 2120 ng/mL | concentration at 0.33 h [1, 3]: 1770 ng/mL | concentration at 0.5 h [1, 3]: 1220 ng/mL | concentration at 0.67 h [1, 3]: 626 ng/mL | concentration at 1 h [1, 3]: 442 ng/mL | concentration at 1.25 h [1, 3]: 465 ng/mL | concentration at 1.5 h [1, 3]: 409 ng/mL | concentration at 2 h [1, 3]: 378 ng/mL | concentration at 3 h [1, 3]: 127 ng/mL | concentration at 4 h [1, 3]: 61.3 ng/mL | concentration at 6 h [1, 3]: 51.1 ng/mL | concentration at 12 h [1, 3]: 22.8 ng/mL | concentration at 24 h [1, 3]: 7.7 ng/mL | Cmax [1, 3]: 2120 ng/mL | concentration at 0.67 h [1, 4]: 2300 ng/mL | concentration at 1 h [1, 4]: 346 ng/mL | concentration at 1.25 h [1, 4]: 972 ng/mL | concentration at 1.5 h [1, 4]: 465 ng/mL | concentration at 2 h [1, 4]: 1880 ng/mL | concentration at 3 h [1, 4]: 336 ng/mL | concentration at 4 h [1, 4]: 398 ng/mL | concentration at 6 h [1, 4]: 1010 ng/mL | concentration at 12 h [1, 4]: 250 ng/mL | bioavailability ([1]; male, Sprague Dawley, rat, plasma, Compound 1 75 mg/kg oral, read-out: Systemic oral bioavailability): 19 ± 5% | Tmax ([1]; male, Sprague Dawley, rat, plasma, rats, Compound 1 75 mg/kg oral gavage): 15 min | AUC ([1]; male, Sprague Dawley, rat, portal vein plasma, Compound 1 75 mg/kg oral gavage, portal sample, read-out: AUC average ± standard deviation 0 to 24 hours): 11900 ng·h/mL | AUC ([1]; male, Sprague Dawley, rat, portal vein plasma, Compound 1 75 mg/kg oral gavage, portal sample, read-out: AUC average ± standard deviation 0 to infinite hours): 12500 ng·h/mL | concentration at 0 h [1, 5]: 2.4 ng/mL | concentration at 0.08 h [1, 5]: 7520 ng/mL | concentration at 0.25 h [1, 5]: 4250 ng/mL | concentration at 0.33 h [1, 5]: 3880 ng/mL | concentration at 0.5 h [1, 5]: 873 ng/mL | concentration at 24 h [1, 5]: 224 ng/mL | Cmax [1, 5]: 8690 ng/mL | Plasma level of Compound 1 relative to level of the metabolites ([1]; oral administration): 6% | Plasma level of Compound 1 relative to level of the metabolites ([2]; IV administration): 2% | AUC ([2]; Sprague Dawley, rat, plasma, male rats N=4, Compound 1 2 mg/kg IV, read-out: AUC average ± standard deviation): 345 ± 42 ng·h/mL | C0 ([2]; Sprague Dawley, rat, plasma, male rats N=4, Compound 1 2 mg/kg IV, read-out: C0 (concentration at zero time, by extrapolation)): 783 ng/mL | Cmax ([2]; Sprague Dawley, rat, plasma, male rats N=4, Compound 1 2 mg/kg IV, read-out: Cmax average ± standard deviation): 783 ± 233 ng/mL | concentration at 0.08 h ([2]; Sprague Dawley, rat, plasma, male rats N=4, Compound 1 2 mg/kg IV, retro orbital sinus, 0.08 hrs): 610 ng/mL | concentration at 0.33 h ([2]; Sprague Dawley, rat, plasma, male rats N=4, Compound 1 2 mg/kg IV, retro orbital sinus, 0.33 hrs): 286 ng/mL | concentration at 1 h ([2]; Sprague Dawley, rat, plasma, male rats N=4, Compound 1 2 mg/kg IV, retro orbital sinus, 1 hr): 71.3 ng/mL | concentration at 2 h ([2]; Sprague Dawley, rat, plasma, male rats N=4, Compound 1 2 mg/kg IV, retro orbital sinus, 2 hrs): 16.3 ng/mL | concentration at 4 h ([2]; Sprague Dawley, rat, plasma, male rats N=4, Compound 1 2 mg/kg IV, retro orbital sinus, 4 hrs): 1.2 ng/mL | concentration at 8 h ([2]; Sprague Dawley, rat, plasma, male rats N=4, Compound 1 2 mg/kg IV, retro orbital sinus, 8 hrs): 0 ng/mL | concentration at 24 h ([2]; Sprague Dawley, rat, plasma, male rats N=4, Compound 1 2 mg/kg IV, retro orbital sinus, 24 hrs): 0 ng/mL
SMILES: COc1cc2c(cc1OC)-c1n[nH]c(Nc3cccc(F)c3)c1C2 [Compound 1, (6,7-dimethoxy-2,4-dihydro-indeno[1,2-c]pyrazol-3-yl)-(3-fluoro-phenyl)-amine]

— patent publication US20080031866A1, “METHOD FOR MODULATING THE PHARMACOKINETICS AND METABOLISM OF A THERAPEUTIC AGENT” (priority 2006, published 2008)
